US10258634B2, “Ciclesonide for the treatment of airway disease in horses” (Boehringer Ingelheim Vetmedica GmbH, priority 2012, dated 2019)

Tests used:
RAO horses [1] = assay: 2nd ciclesonide study: moldy hay challenge, serum cortisol; assay type: in vivo; conditions: any ciclesonide group (1687.5/2700 A/2700 B μg twice daily); any measured time point
Description: (§1) The commercially available […]® is used in the study.

RAO horses [2] = assay: 3rd ciclesonide study: moldy hay challenge, lung function variables; assay type: in vivo; conditions: ciclesonide 2700 μg twice daily / 3712.5 μg once daily morning / 3712.5 μg once daily evening, inhalation, nozzle B; after 14 days
Description: The horses are challenged by exposure to moldy hay to throughout the whole study.

RAO horses [3] = assay: 1st ciclesonide study: moldy hay challenge, serum cortisol; assay type: in vivo; conditions: any ciclesonide group (450/900/1800 μg/horse twice daily); any measured time point
RAO horses [4] = assay: 1st ciclesonide study: moldy hay challenge, lung function variables and breathing effort score; assay type: in vivo; conditions: after 14 days
RAO horses [5] = assay: 2nd ciclesonide study: moldy hay challenge, lung function variables and weighted clinical score; assay type: in vivo
Description: as §1

RAO horses [6] = assay: Segmented neutrophil and lymphocyte counts in the 1st and 2nd ciclesonide studies; assay type: in vivo; conditions: for Lymphocytes / Segmented neutrophils: mean, n=8
Experimental: as §1
The segmented neutrophil counts and the lymphocyte counts are determined in the studies above: ciclesonide treatment versus dexamethasone treatment.
Concentration of segmented neutrophils and lymphocytes on day (D): D0, D14 and D21 in the treatment groups of dexamethasone and different doses of ciclesonide (n=8) (mean (SEM)

[7] = Plasma level of ciclesonide and C21-C21-desisobutyrylciclesonide (HPLC-MS/MS), 2nd ciclesonide study; conditions: for concentration at 0 min / concentration at 10 min / concentration at 30 min / concentration at 1 h / concentration at 2 h / concentration at 4 h: horse, plasma, inhaled
[8] = 450 μg ciclesonide/horse twice daily 14 days per inhalation (nozzle A), 1st study, D 0
[9] = 450 μg ciclesonide/horse twice daily 14 days per inhalation (nozzle A), 1st study, D 14
[10] = 450 μg ciclesonide/horse twice daily 14 days per inhalation (nozzle A), 1st study, D 21
[11] = 900 μg ciclesonide/horse twice daily 14 days per inhalation (nozzle A), 1st study, D 0
[12] = 900 μg ciclesonide/horse twice daily 14 days per inhalation (nozzle A), 1st study, D 14
[13] = 900 μg ciclesonide/horse twice daily 14 days per inhalation (nozzle A), 1st study, D 21
[14] = 1687.5 μg ciclesonide/horse twice daily 14 days per inhalation (nozzle B), 2nd study, D 0
[15] = 1687.5 μg ciclesonide/horse twice daily 14 days per inhalation (nozzle B), 2nd study, D 14
[16] = 1687.5 μg ciclesonide/horse twice daily 14 days per inhalation (nozzle B), 2nd study, D 21
[17] = 1800 μg ciclesonide/horse twice daily 14 days per inhalation (nozzle A), 1st study, D 0
[18] = 1800 μg ciclesonide/horse twice daily 14 days per inhalation (nozzle A), 1st study, D 14
[19] = 1800 μg ciclesonide/horse twice daily 14 days per inhalation (nozzle A), 1st study, D 21
[20] = 2700 μg ciclesonide A (nozzle A)/horse twice daily 14 days per inhalation, 2nd study, D 0
[21] = 2700 μg ciclesonide A (nozzle A)/horse twice daily 14 days per inhalation, 2nd study, D 14
[22] = 2700 μg ciclesonide A (nozzle A)/horse twice daily 14 days per inhalation, 2nd study, D 21
[23] = 2700 μg ciclesonide B (nozzle B)/horse twice daily 14 days per inhalation, 2nd study, D 0
[24] = 2700 μg ciclesonide B (nozzle B)/horse twice daily 14 days per inhalation, 2nd study, D 14
[25] = 2700 μg ciclesonide B (nozzle B)/horse twice daily 14 days per inhalation, 2nd study, D 21
[26] = 1st ciclesonide study, after administration of ciclesonide 450/900/1800 μg twice daily
[27] = 2nd ciclesonide study, after administration of ciclesonide 1687.5/2700 μg twice daily
[28] = 1687.5 μg/horse, Ciclesonide concentration (plasma), ciclesonide 1687.5 μg (nozzle B) twice daily per inhalation, day 1
[29] = 1687.5 μg/horse, Ciclesonide concentration (plasma), ciclesonide 1687.5 μg (nozzle B) twice daily per inhalation, day 11
[30] = 2700 μg/horse, Ciclesonide concentration (plasma), ciclesonide 2700 μg A (nozzle A) twice daily per inhalation, day 1
[31] = 2700 μg/horse, Ciclesonide concentration (plasma), ciclesonide 2700 μg A (nozzle A) twice daily per inhalation, day 11
[32] = 2700 μg/horse, Ciclesonide concentration (plasma), ciclesonide 2700 μg B (nozzle B) twice daily per inhalation, day 1
[33] = 2700 μg/horse, Ciclesonide concentration (plasma), ciclesonide 2700 μg B (nozzle B) twice daily per inhalation, day 11

SMILES: CC(C)C(=O)OCC(=O)[C@@]12O[C@H](C3CCCCC3)O[C@@H]1C[C@H]1[C@@H]3CCC4=CC(=O)C=C[C@]4(C)[C@H]3[C@@H](O)C[C@@]12C [ciclesonide, (11β,16α)-16,17-[[(R)-Cyclohexylmethylene]bis(oxy)]-11-hydroxy-21-(2-methyl-1-oxopropoxy)pregna-1,4-diene-3,20-dione]
- serum cortisol levels (RAO horses [1]): no significant reduction
- lung function variables (ΔPL, RL, EL) compared to pretreatment values and to placebo group (RAO horses [2]): significantly reduced
- serum cortisol levels (RAO horses [3]): no significant reduction
- ΔPL and EL compared to pretreatment values (RAO horses [4]; ciclesonide 1800 μg/horse ex RESPIMAT twice daily per inhalation, p=0.0005 and p=0.0004): statistically significant reduction
- ΔPL and EL, difference to dexamethasone group (RAO horses [4]; ciclesonide 1800 μg/horse ex RESPIMAT twice daily): no significant difference
- all lung function variables (ΔPL, RL, EL) compared to pretreatment values (RAO horses [5]; all ciclesonide groups (1687.5 μg nozzle B/2700 μg nozzle A/2700 μg nozzle B twice daily), after 14 days, p=0.0009 to p<0.0001): significantly reduced
- lung function variables, difference to dexamethasone group (RAO horses [5]; all ciclesonide groups (1687.5/2700 A/2700 B μg twice daily), after 7 or 14 days): no significant difference
- weighted clinical score compared to pretreatment values (RAO horses [5]; all three ciclesonide groups (1687.5/2700 A/2700 B μg twice daily), after 14 days, p=0.0001 to p<0.0001): significantly reduced
- weighted clinical score, difference to dexamethasone group (RAO horses [5]; ciclesonide treatment groups (1687.5/2700 A/2700 B μg twice daily), after 14 days): no significant difference
- Lymphocytes (RAO horses [6]; [8]): 1.96e+09 L⁻¹
- Segmented neutrophils (RAO horses [6]; [8]): 4.66e+09 L⁻¹
- Lymphocytes (RAO horses [6]; [9]): 1.97e+09 L⁻¹
- Segmented neutrophils (RAO horses [6]; [9]): 4.98e+09 L⁻¹
- Lymphocytes (RAO horses [6]; [10]): 2.17e+09 L⁻¹
- Segmented neutrophils (RAO horses [6]; [10]): 5.48e+09 L⁻¹
- Lymphocytes (RAO horses [6]; [11]): 1.85e+09 L⁻¹
- Segmented neutrophils (RAO horses [6]; [11]): 5.24e+09 L⁻¹
- Lymphocytes (RAO horses [6]; [12]): 2.03e+09 L⁻¹
- Segmented neutrophils (RAO horses [6]; [12]): 4.43e+09 L⁻¹
- Lymphocytes (RAO horses [6]; [13]): 1.94e+09 L⁻¹
- Segmented neutrophils (RAO horses [6]; [13]): 4.91e+09 L⁻¹
- Lymphocytes (RAO horses [6]; [14]): 1.93e+09 L⁻¹
- Segmented neutrophils (RAO horses [6]; [14]): 4.51e+09 L⁻¹
- Lymphocytes (RAO horses [6]; [15]): 1.94e+09 L⁻¹
- Segmented neutrophils (RAO horses [6]; [15]): 5.22e+09 L⁻¹
- Lymphocytes (RAO horses [6]; [16]): 2.04e+09 L⁻¹
- Segmented neutrophils (RAO horses [6]; [16]): 4.55e+09 L⁻¹
- Lymphocytes (RAO horses [6]; [17]): 1.95e+09 L⁻¹
- Segmented neutrophils (RAO horses [6]; [17]): 4.6e+09 L⁻¹
- Lymphocytes (RAO horses [6]; [18]): 1.96e+09 L⁻¹
- Segmented neutrophils (RAO horses [6]; [18]): 5.41e+09 L⁻¹
- Lymphocytes (RAO horses [6]; [19]): 2.06e+09 L⁻¹
- Segmented neutrophils (RAO horses [6]; [19]): 4.93e+09 L⁻¹
- Lymphocytes (RAO horses [6]; [20]): 2.04e+09 L⁻¹
- Segmented neutrophils (RAO horses [6]; [20]): 4.91e+09 L⁻¹
- Lymphocytes (RAO horses [6]; [21]): 2.14e+09 L⁻¹
- Segmented neutrophils (RAO horses [6]; [21]): 4.85e+09 L⁻¹
- Lymphocytes (RAO horses [6]; [22]): 2.01e+09 L⁻¹
- Segmented neutrophils (RAO horses [6]; [22]): 4.41e+09 L⁻¹
- Lymphocytes (RAO horses [6]; [23]): 1.8e+09 L⁻¹
- Segmented neutrophils (RAO horses [6]; [23]): 4.23e+09 L⁻¹
- Lymphocytes (RAO horses [6]; [24]): 1.74e+09 L⁻¹
- Segmented neutrophils (RAO horses [6]; [24]): 4.75e+09 L⁻¹
- Lymphocytes (RAO horses [6]; [25]): 2.01e+09 L⁻¹
- Segmented neutrophils (RAO horses [6]; [25]): 4.84e+09 L⁻¹
- counts of lymphocytes (RAO horses [6]; [26]): no change
- counts of segmented neutrophils (RAO horses [6]; [26]): no or minor increase
- counts of lymphocytes (RAO horses [6]; [27]): no change
- counts of segmented neutrophils (RAO horses [6]; [27]): no or minor increase
- alteration in the immune system measured by neutrophilia and lymphopenia (RAO horses [6]; treatment for two weeks with different dose levels of ciclesonide): no alteration is observed
- Ciclesonide concentration (plasma) ([7]; ciclesonide 1687.5 μg (nozzle B) twice daily per inhalation, day 11, 2 h): <0.500 nmol/L
- Ciclesonide concentration (plasma) ([7]; ciclesonide 1687.5 μg (nozzle B) twice daily per inhalation, day 11, 4 h): <0.500 nmol/L
- concentration at 0 min [7, 28]: < 0.5 nM
- concentration at 10 min [7, 28]: 0.87 nM
- concentration at 30 min [7, 28]: < 0.5 nM
- concentration at 1 h ([7]; 1687.5 μg/horse, Ciclesonide concentration (plasma), ciclesonide 1687.5 μg (nozzle B) twice daily per inhalation, day 1, 1 h): < 0.5 nM
- concentration at 2 h ([7]; 1687.5 μg/horse, Ciclesonide concentration (plasma), ciclesonide 1687.5 μg (nozzle B) twice daily per inhalation, day 1, 2 h): < 0.5 nM
- concentration at 4 h ([7]; 1687.5 μg/horse, Ciclesonide concentration (plasma), ciclesonide 1687.5 μg (nozzle B) twice daily per inhalation, day 1, 4 h): < 0.5 nM
- concentration at 0 min [7, 29]: < 0.5 nM
- concentration at 10 min [7, 29]: 0.97 nM
- concentration at 30 min [7, 29]: < 0.5 nM
- concentration at 1 h ([7]; 1687.5 μg/horse, Ciclesonide concentration (plasma), ciclesonide 1687.5 μg (nozzle B) twice daily per inhalation, day 11, 1 h): < 0.5 nM
- concentration at 0 min [7, 30]: < 0.5 nM
- concentration at 10 min [7, 30]: 1.19 nM
- concentration at 30 min [7, 30]: 0.51 nM
- concentration at 1 h ([7]; 2700 μg/horse, Ciclesonide concentration (plasma), ciclesonide 2700 μg A (nozzle A) twice daily per inhalation, day 1, 1 h): < 0.5 nM
- concentration at 2 h ([7]; 2700 μg/horse, Ciclesonide concentration (plasma), ciclesonide 2700 μg A (nozzle A) twice daily per inhalation, day 1, 2 h): < 0.5 nM
- concentration at 4 h ([7]; 2700 μg/horse, Ciclesonide concentration (plasma), ciclesonide 2700 μg A (nozzle A) twice daily per inhalation, day 1, 4 h): < 0.5 nM
- concentration at 0 min [7, 31]: < 0.5 nM
- concentration at 10 min [7, 31]: 1.02 nM
- concentration at 30 min [7, 31]: 0.63 nM
- concentration at 1 h ([7]; 2700 μg/horse, Ciclesonide concentration (plasma), ciclesonide 2700 μg A (nozzle A) twice daily per inhalation, day 11, 1 h): < 0.5 nM
- concentration at 2 h ([7]; 2700 μg/horse, Ciclesonide concentration (plasma), ciclesonide 2700 μg A (nozzle A) twice daily per inhalation, day 11, 2 h): < 0.5 nM
- concentration at 4 h ([7]; 2700 μg/horse, Ciclesonide concentration (plasma), ciclesonide 2700 μg A (nozzle A) twice daily per inhalation, day 11, 4 h): < 0.5 nM
- concentration at 0 min [7, 32]: < 0.5 nM
- concentration at 10 min [7, 32]: 1.16 nM
- concentration at 30 min [7, 32]: 0.72 nM
- concentration at 1 h ([7]; 2700 μg/horse, Ciclesonide concentration (plasma), ciclesonide 2700 μg B (nozzle B) twice daily per inhalation, day 1, 1 h): < 0.5 nM
- concentration at 2 h ([7]; 2700 μg/horse, Ciclesonide concentration (plasma), ciclesonide 2700 μg B (nozzle B) twice daily per inhalation, day 1, 2 h): < 0.5 nM
- concentration at 4 h ([7]; 2700 μg/horse, Ciclesonide concentration (plasma), ciclesonide 2700 μg B (nozzle B) twice daily per inhalation, day 1, 4 h): < 0.5 nM
- concentration at 0 min [7, 33]: < 0.5 nM
- concentration at 10 min [7, 33]: 1.38 nM
- concentration at 30 min [7, 33]: 0.63 nM
- concentration at 1 h ([7]; 2700 μg/horse, Ciclesonide concentration (plasma), ciclesonide 2700 μg B (nozzle B) twice daily per inhalation, day 11, 1 h): < 0.5 nM
- concentration at 2 h ([7]; 2700 μg/horse, Ciclesonide concentration (plasma), ciclesonide 2700 μg B (nozzle B) twice daily per inhalation, day 11, 2 h): < 0.5 nM
- concentration at 4 h ([7]; 2700 μg/horse, Ciclesonide concentration (plasma), ciclesonide 2700 μg B (nozzle B) twice daily per inhalation, day 11, 4 h): < 0.5 nM
- concentration at 1 h ([7]; concentration of ciclesonide in plasma, samples taken 1 h after drug administration, below lower limit of quantification): < 0.5 nM
- conversion of the prodrug into the effective molecule C21-C21-desisobutyrylciclesonide ([7]; in horses (example 5)): can be converted
